The values that follow are results of earlier work, collected in US20110293691A1, “MULTIMODAL ADHESION BARRIER” (priority 2010, published 2011).

The subject of the data set is rat model. Particulars: oral or intraperitoneal, about one week prior to surgery and three weeks postoperatively.

With `O=C(CC1NCCCC1O)Cn1cnc2cc(Br)c(Cl)cc2c1=O` (stereo not shown) [Halofuginone, 7-bromo-6-chloro-3-[3-(3-hydroxy-2-piperidinyl)-2-oxopropyl]-4(3H)], the “prevention of adhesions (in words)” value is given as “prevent adhesions in a rat model in a dose dependent manner”.
